According to patent publication US4470993A, “Therapeutical use of known 5-aminomethyl oxazolidine-2-one derivatives” (Delalande S.A., priority 1982, dated 1984):

Assays:
[1] = Acute toxicity, oral, in mice (Miller and Tainter); settings: mouse, in vivo, read-out: Acute toxicity LD 50
Experimental: The acute toxicity is determined orally on mice according to the method described by MILLER and TAINTER in Proc. Soc. Exp. Biol. Med. 57, 261 (1944).

[2] = tested on: A type monoamine oxidase; test: Ex vivo monoamine oxidase inhibition in rat brain homogenate, serotonine substrate; parameters: unit not given here; settings: rats, 5 mg/kg p.o.; for Monoamine oxidase inhibition effect, A Type monoamine oxidase, 8 hours: 8 hours after administration; for Monoamine oxidase inhibition effect, A Type monoamine oxidase, 24 hours: 24 hours after administration; for Monoamine oxidase inhibition effect, A Type monoamine oxidase, max.: maximum effect observed between 30 minutes and 8 hours
Experimental: (§1) This activity has been shown ex vivo on rats to which are orally administered the compounds employed in the invention as a 0.5% suspension in methylcellulose. Then the rats are decapitated at various times (30 mn, 1 hour, 2 hours, 4 hours, 8 hours and 24 hours after the administration). The brains are taken up, weighed and homogeneized and the determination of the monoamine oxidase inhibition effect is carried out by using serotonine (specific substrate of the A type monoamine oxidase) and phenylethylamine (specific substrate of B type monoamine oxidase) according to the method described by J. P. KAN and M. STROLIN-BENEDETTI in Life Sciences 26, 2165 (1980).
(§2) To illustrate the invention, in table below the results thus obtained are given. (The maximum effect is that observed between 30 minutes and 8 hours).

[3] = tested on: B type monoamine oxidase; test: Ex vivo monoamine oxidase inhibition in rat brain homogenate, phenylethylamine substrate; parameters: unit not given here; settings: rats, 5 mg/kg p.o.; for Monoamine oxidase inhibition effect, B Type monoamine oxidase, 8 hours: 8 hours after administration; for Monoamine oxidase inhibition effect, B Type monoamine oxidase, 24 hours: 24 hours after administration; for Monoamine oxidase inhibition effect, B Type monoamine oxidase, max.: maximum effect observed between 30 minutes and 8 hours
Experimental: as §1, §2

| Compound | LD50 [1] | Monoamine oxidase inhibition effect, A Type monoamine oxidase, 8 hours [2] | Monoamine oxidase inhibition effect, A Type monoamine oxidase, 24 hours [2] | Monoamine oxidase inhibition effect, A Type monoamine oxidase, max. [2] | Monoamine oxidase inhibition effect, B Type monoamine oxidase, 8 hours [3] | Monoamine oxidase inhibition effect, B Type monoamine oxidase, 24 hours [3] | Monoamine oxidase inhibition effect, B Type monoamine oxidase, max. [3] |
| --- | --- | --- | --- | --- | --- | --- | --- |
| NCC1CN(c2ccc(OCC3CCCC3)cc2)C(=O)O1 (stereo not shown) [cyclopentylmethyl, amino] | > 2000 mg/kg | 9 | 0 | 30 | 17 | 2 | 78 |
| CNCC1CN(c2ccc(OCC3CCCCC3)cc2)C(=O)O1 (stereo not shown) [cyclohexylmethyl, N--methylamino] | > 2000 mg/kg | 17 | 6 | 21 | 42 | 6 | 67 |
| CNCC1CN(c2ccc(OCc3cccc(Cl)c3)cc2)C(=O)O1 (stereo not shown) [m-chlorobenzyl, N--methylamino] | > 2000 mg/kg | 12 | 1 | 28 | 67 | 27 | 83 |
| NCC1CN(c2ccc(OCC3CCCCC3)cc2)C(=O)O1 (stereo not shown) [cyclohexylmethyl, amino] | > 2000 mg/kg | 13 | 5 | 23 | 60 | 3 | 81 |
| CC(C)CCOc1ccc(N2CC(CN)OC2=O)cc1 (stereo not shown) [3-methylbutyl, amino] | > 2000 mg/kg | 2 | 0 | 29 | 8 | 1 | 69 |
| NCC1CN(c2ccc(OCc3ccccc3)cc2)C(=O)O1 (stereo not shown) [benzyl, amino] | > 2000 mg/kg | 4 | 4 | 19 | 69 | 45 | 85 |
| NCC1CN(c2ccc(OCc3ccc(F)cc3)cc2)C(=O)O1 (stereo not shown) [p-fluorobenzyl, amino] | > 2000 mg/kg | 20 | 3 | 43 | 82 | 61 | 88 |
| CNCC1CN(c2ccc(OCc3ccc(F)cc3)cc2)C(=O)O1 (stereo not shown) [p-fluorobenzyl, N--methylamino] | > 2000 mg/kg | 23 | 0 | 44 | 63 | 27 | 85 |
| NCC1CN(c2ccc(OCc3cccc(Cl)c3)cc2)C(=O)O1 (stereo not shown) [m-chlorobenzyl, amino] | > 2000 mg/kg | 18 | 6 | 30 | 85 | 67 | 88 |
| CNCC1CN(c2ccc(OCc3ccccc3)cc2)C(=O)O1 (stereo not shown) [benzyl, N--methylamino] | > 2000 mg/kg | 11 | 10 | 23 | 43 | 31 | 78 |
